According to patent publication US20250263669A1, “INDUCED TOTIPOTENT STEM CELLS AND PREPARATION METHOD THEREFOR” (TSINGHUA UNIVERSITY, priority 2021, published 2025):

Experiments:
[1] = test system: totipotency genes, maternal genes and ZGA genes; assay: RNA-seq analysis of specific gene sets in totipotent cell induction; assay type: cell-based, mouse; details: for role in induction of totipotent stem cells (upregulation of totipotency genes, maternal genes and ZGA genes): RNA-seq, specific gene sets
NF-κB signaling = assay: GO analysis and gene expression after WS6 withdrawal in ciTotiSC culture conditions; assay type: cell-based, mouse
Text: WS6 is an IKK—NF-κB inhibitor that was previously shown to promote post-mitotic cell proliferation. […] Furthermore, it has been reported that downregulation of NF-κB during zygote development is critical for its totipotent state, and activation of NF-κB triggers subsequent development after ZGA (Akihiko Nishikimi, 1999; Paciolla et al. 2011). Therefore, WS6 may play a role in promoting and stabilizing induction of totipotent stem cells (ciTotiSCs), in part by inhibiting the NF-κB mediated immune response triggered by ERV activation (FIGS. 10k, j).

Wnt signaling [2] = assay: GO analysis of Wnt signaling-targeted genes in ciTotiSC culture conditions; assay type: cell-based, mouse; details: 1-AKP withdrawn in ciTotiSC culture conditions
Text: (§1) Meanwhile, the inventors also observed a prolongation of the G2 phase of the cell cycle after induction of totipotent stem cells (ciTotiSCs), which was consistent with the difference between early 2C embryos and blastocysts (FIG. 10i).

[3] = test system: totipotent stem cells (ciTotiSCs); assay: Cell cycle G2 phase of totipotent stem cells (ciTotiSCs); assay type: cell-based, mouse; details: 1-Azakenpaullone withdrawn from ciTotiSC culture conditions
Text: as §1

Wnt signaling [4] = details: studies have shown; cited from earlier work

CN1CCN(Cc2ccc(NC(=O)Cc3ccc(Oc4cc(NC(=O)C5CC5)ncn4)cc3)cc2C(F)(F)F)CC1 [WS6]
role in induction of totipotent stem cells (upregulation of totipotency genes, maternal genes and ZGA genes) [1]: important for the induction of totipotent stem cells
expression of genes downstream of NF-κB signaling (NF-κB signaling; WS6 withdrawn): up-regulated
GO analysis of differential genes after WS6 ablation (NF-κB signaling; ciTotiSC culture conditions): enriched multiple innate immunity-related pathways, especially NF-κB signaling

C/C(=C\c1ccc(C(=O)O)cc1)c1ccc2c(c1)C(C)(C)CCC2(C)C [TTNPB]
activation of totipotency, maternal and ZGA genes rich in RAR-binding motifs [1]: could directly activate
role in induction of totipotent stem cells (upregulation of totipotency genes, maternal genes and ZGA genes) [1]: important for the induction of totipotent stem cells

O=C1Cc2c([nH]c3ccc(Br)cc23)-c2ncccc2N1 [1-Azakenpaullone]
role in induction of totipotent stem cells (upregulation of totipotency genes, maternal genes and ZGA genes) [1]: important for the induction of totipotent stem cells
specific Wnt signaling-targeted genes after withdrawal (Wnt signaling [2]): not up-regulated
G2 phase prolongation of ciTotiSCs after withdrawal [3]: reduced
Wnt signaling downstream gene expression and cell cycle arrest (Wnt signaling [4]): induces specific Wnt signaling downstream gene expression and G2/M arrest simultaneously

Cc1ccc(C2=CCC(C)(C)c3ccc(C#Cc4ccc(C(=O)O)cc4)cc32)cc1 [AGN193109]
gene induction in the presence of the RA antagonist ([1]; in the presence of AGN193109): could not be induced
